The source of these data is PubChem BioAssay AID1259408 (Genetic Toxicology Data Bank (GENE-TOX), 2018).

The data set relates to GENE-TOX genotoxicity assays, various organisms and cells. Description: GENE-TOX mutagenicity studies. The note with it: for call: Assay Type: In vivo carcinogenicity studies.
The mark [1] stands for this setting: Species/Cell Type: Bacillus subtilis (H17 vs M45), Assay Type: Rec-assay, spot test, DNA effects (bacterial DNA repair), Assay Code: REW+, Evaluation Type: Evaluation A (Pre-1980).
The mark [2] stands for this setting: Species/Cell Type: Drosophila melanogaster, Assay Type: Sex-linked recessive lethal gene mutation, Assay Code: SRL+, Evaluation Type: Evaluation A (Pre-1980).
Setting [3] is: Species/Cell Type: Escherichia coli polA (W3119 vs P3478), Assay Type: Rec-assay, DNA effects (bacterial DNA repair), Assay Code: RE1+, Evaluation Type: Evaluation A (Pre-1980).
Setting [4] is: Species/Cell Type: Nonhuman, Assay Code: CCG+L, Evaluation Type: Evaluation A (Pre-1980).
Setting [5] is: Species/Cell Type: Saccharomyces cerevisiae, Assay Type: Mitotic recombination or gene conversion, Assay Code: YEH+, Evaluation Type: Evaluation A (Pre-1980).
[6] abbreviates: Species/Cell Type: Salmonella typhimurium (one or more of the five standard strains: TA98, TA100, TA1535, TA1537, and TA1538), Assay Type: Histidine reverse gene mutation, Ames assay, Assay Code: SAL+, Evaluation Type: Evaluation A (Pre-1980).
The mark [7] stands for this setting: Species/Cell Type: Salmonella typhimurium (one or more of the five standard strains: TA98, TA100, TA1535, TA1537, and TA1538), Assay Type: Histidine reverse gene mutation, Ames assay, Assay Code: SALT, Evaluation Type: Evaluation A (Pre-1980).
Where [8] appears, read: Species/Cell Type: Syrian hamster embryo (SA7/SHE) cells, Assay Type: Cell transformation, viral enhanced, Assay Code: CT7+, Evaluation Type: Evaluation A (Pre-1980).

Calls of active or inactive are those of the source. The rule behind the calls is not given here.

With `O=C1[C@H]2CC=CC[C@H]2C(=O)N1SC(Cl)(Cl)Cl`, the mutagenic call is “inactive; negative” (Species/Cell Type: Aspergillus nidulans, Assay Type: Aneuploidy, chromosome aberrations, Assay Code: ASN-, Evaluation Type: Evaluation A (Pre-1980)); “active; positive” (Species/Cell Type: Aspergillus nidulans, Assay Type: Mitotic recombination, Assay Code: ASG+, Evaluation Type: Evaluation A (Pre-1980)); “active; positive” under setting [1]; “active; positive” (Species/Cell Type: Chinese hamster lung (V79) cells, Assay Type: Forward gene mutation at the HPRT or ouabain locus, Assay Code: V79+, Evaluation Type: Evaluation A (Pre-1980)); “active; positive” (Species/Cell Type: Chinese hamster ovary (CHO) cells, Assay Type: Forward gene mutation at the HPRT locus, Assay Code: CHO+, Evaluation Type: Evaluation B (Post-1980)); “active; positive” under setting [2]. The mutagenic call was “no conclusion” (Species/Cell Type: Drosophila melanogaster, Sex: Male, Assay Type: Heritable translocation test, chromosome aberrations, Assay Code: DHTT, Evaluation Type: Evaluation A (Pre-1980)); “active; positive” (Species/Cell Type: Escherichia coli WP2, Assay Type: Tryptophan reverse gene mutation, Assay Code: WP2+, Evaluation Type: Evaluation A (Pre-1980)); “inactive; positive without activation, negative with activation” (Species/Cell Type: Escherichia coli WP2 UVRA, Assay Type: Tryptophan reverse gene mutation, Assay Code: WPU+/-*, Activation: With metabolic activation, Evaluation Type: Evaluation A (Pre-1980)); “active; positive” under setting [3]; “inactive; negative” (Species/Cell Type: Human diploid fibroblasts, Assay Type: Unscheduled DNA synthesis (UDS) in vitro, DNA effects, Assay Code: UDH-, Evaluation Type: Evaluation A (Pre-1980)); “active; positive” (Species/Cell Type: Human lymphocytes, Assay Type: Sister-chromatid exchange (SCE) in vitro, Assay Code: SCL+, Evaluation Type: Evaluation B (Post-1980)). For the same compound, the mutagenic call was “active; positive” (Species/Cell Type: Human, Assay Type: Sister-chromatid exchange (SCE) in vitro, Assay Code: SC1+, Evaluation Type: Evaluation B (Post-1980)); “active; positive” (Species/Cell Type: Mammalian polychromatic erythrocytes, Assay Type: Micronucleus test, chromosome aberrations, Assay Code: MNT+, Evaluation Type: Evaluation B (Post-1980)); “inactive; negative” (Species/Cell Type: Mouse, Sex: Male, Assay Type: Heritable translocation test, chromosome aberrations, Assay Code: HTT-, Evaluation Type: Evaluation A (Pre-1980)); “active; positive” (Species/Cell Type: Nonhuman, Assay Type: Sister-chromatid exchange (SCE) in vitro, Assay Code: SC2+D, Dose Response: With dose response, Evaluation Type: Evaluation B (Post-1980)); “active; positive” (Species/Cell Type: Rodents, Sex: Male, Assay Type: Dominant lethal test, Assay Code: DLT+, Evaluation Type: Evaluation A (Pre-1980)); “active; positive” (Species/Cell Type: Saccharomyces cerevisiae, Assay Type: Mitotic recombination or gene conversion, Assay Code: YEC+, Evaluation Type: Evaluation A (Pre-1980)). The mutagenic call was “active; positive” under setting [5]; “active; positive” under setting [6]; “active; positive” (Species/Cell Type: Salmonella typhimurium, Serratia marcesens, Assay Type: Forward and reverse gene mutation, host-mediated assay, Assay Code: HM2+, Evaluation Type: Evaluation A (Pre-1980)); “inactive; negative” (Species/Cell Type: Salmonella typhimurium, Assay Type: Forward and reverse gene mutation, body fluid assay, Assay Code: BFU-, Evaluation Type: Evaluation A (Pre-1980)). Moreover, the call under setting [4] is “active; positive”.

For the compound `O=c1c(O)c(-c2ccccc2)oc2cc(O)cc(O)c12`, the mutagenic call runs as follows: (Species/Cell Type: Mammalian polychromatic erythrocytes, Assay Type: Micronucleus test, chromosome aberrations, Assay Code: MNT+U, Dose Response: Unconfirmed positive response, Evaluation Type: Evaluation B (Post-1980)) “active; positive”; (Species/Cell Type: Nonhuman, Assay Type: Sister-chromatid exchange (SCE) in vitro, Assay Code: SC2+*, Activation: With metabolic activation, Evaluation Type: Evaluation B (Post-1980)) “active; positive”.

For the compound `CN/C(=C\[N+](=O)[O-])NCCSCc1ccc(CN(C)C)o1`, the mutagenic call (Species/Cell Type: Nonhuman, Assay Type: Sister-chromatid exchange (SCE) in vivo, Assay Code: SC3T, Evaluation Type: Evaluation B (Post-1980)) is “no conclusion”.

For the compound `C=CC(=O)c1ccc2c(c1)OCO2`, the mutagenic call under setting [7] is listed as “no conclusion”.

`O=[N+]([O-])c1cccc2cn[nH]c12`: under setting [6], the mutagenic call is “active; positive”.

For `[Cl][Hg][Cl]`, the mutagenic call is “active; positive” under setting [1]; “active; positive” (Species/Cell Type: Human lymphocytes, Assay Type: Sister-chromatid exchange (SCE) in vitro, Assay Code: SCL+D, Dose Response: With dose response, Evaluation Type: Evaluation B (Post-1980)); “active; positive” (Species/Cell Type: Human, Assay Type: Sister-chromatid exchange (SCE) in vitro, Assay Code: SC1+D, Dose Response: With dose response, Evaluation Type: Evaluation B (Post-1980)); “inactive; negative” (Species/Cell Type: Neurospora crassa, Assay Type: Aneuploidy, chromosome aberrations, Assay Code: NEN-, Evaluation Type: Evaluation A (Pre-1980)); “active; positive” (Species/Cell Type: Nonhuman, Assay Type: Sister-chromatid exchange (SCE) in vitro, Assay Code: SC2+, Evaluation Type: Evaluation B (Post-1980)); “inactive; negative” (Species/Cell Type: Nonhuman, Assay Type: Sister-chromatid exchange (SCE) in vitro, Assay Code: SC2-, Evaluation Type: Evaluation B (Post-1980)). Further, the mutagenic call under setting [8] was “active; positive”.

For `[Cl-].[Cl-].[Cl-].[Cl-].[Cl-].[Cl-].[Mo]`, the mutagenic call under setting [8] is “active; positive”.

On to `C=CCN=C=S`, for which the mutagenic call reads like this: under setting [2], “active; positive”; (Species/Cell Type: Drosophila melanogaster, Assay Type: Sex-linked recessive lethal gene mutation, Assay Code: SRL-, Evaluation Type: Evaluation A (Pre-1980)) “inactive; negative”.

Consider `Oc1cc(O)cc(O)c1`, for which, where the note is “Species/Cell Type: Allium cepa, Assay Type: Chromosome aberrations, Assay Code: ALC+D, Dose Response: With dose response, Evaluation Type: Evaluation A (Pre-1980)”, the mutagenic call was “active; positive”.

On to `CC(=O)Nc1ccc([C@@H]2O[C@@H]2c2ccccc2)cc1`, for which the mutagenic call under setting [7] is “no conclusion”.

For the compound `CCCCCCCC(=O)N(C)N=O`, the mutagenic call under setting [5] is “active; positive”.

Take `c1ncncn1`: the mutagenic call (Species/Cell Type: Drosophila melanogaster, Assay Type: Sex-linked recessive lethal gene mutation, Assay Code: SRLT, Evaluation Type: Evaluation A (Pre-1980)) was “no conclusion”.

As to `CCOC(=O)NC(=S)Nc1ccccc1NC(=S)NC(=O)OCC`, the mutagenic call by setting is: (Species/Cell Type: Aspergillus nidulans, Assay Type: Aneuploidy, chromosome aberrations, Assay Code: ASN+, Evaluation Type: Evaluation A (Pre-1980)) “active; positive”; (Species/Cell Type: Aspergillus nidulans, Assay Type: Mitotic recombination, Assay Code: ASGT, Evaluation Type: Evaluation A (Pre-1980)) “no conclusion”.

Take `ONc1cccc2ccccc12`: the mutagenic call by setting is: under setting [3], “active; positive”; (Species/Cell Type: Neurospora crassa, Assay Type: Forward gene mutation, Assay Code: NEF+, Evaluation Type: Evaluation A (Pre-1980)) “active; positive”; under setting [5], “active; positive”; under setting [6], “active; positive”; (Species/Cell Type: Salmonella typhimurium, Assay Type: Forward and reverse gene mutation, host-mediated assay, Assay Code: HMA-, Evaluation Type: Evaluation A (Pre-1980)) “inactive; negative”. The call under setting [4] is “active; positive”.

Regarding `O=c1oc2cc3occc3cc2c2ccncc12`, the mutagenic call (Species/Cell Type: Human, Assay Type: Sister-chromatid exchange (SCE) in vitro, Assay Code: SC1T, Evaluation Type: Evaluation B (Post-1980)) is “no conclusion”.

With `CCCc1cc(=O)[nH]c(=S)[nH]1`, the call (Species/Cell Type: Nonhuman, Assay Code: CCG+, Evaluation Type: Evaluation A (Pre-1980)) is “active; positive”.

`CC(=O)[O][Hg][c]1ccccc1`: the mutagenic call was “active; positive” under setting [1]; “active; positive” (Species/Cell Type: Drosophila melanogaster, Assay Type: Aneuploidy, sex chromosome gain, chromosome aberrations, Assay Code: DAG+F, Evaluation Type: Evaluation A (Pre-1980)); “active; positive” (Species/Cell Type: Drosophila melanogaster, Assay Type: Aneuploidy, whole sex chromosome loss, chromosome aberrations, Assay Code: DAC+F, Evaluation Type: Evaluation A (Pre-1980)).

Consider `C1CC2OC2C2OC12` (stereo not drawn), for which the mutagenic call (Species/Cell Type: Neurospora crassa, Assay Type: Forward gene mutation, Assay Code: NEF-, Evaluation Type: Evaluation A (Pre-1980)) is “inactive; negative”.

Turning to `C1=Cc2cc3ccc4cccc5ccc(c2CC1)c3c45`, the mutagenic call (Species/Cell Type: Mouse prostate cells, Assay Type: Cell transformation, Assay Code: CTM-, Evaluation Type: Evaluation A (Pre-1980)) is “inactive; negative”.

With `CC[C@H]1OC(=O)[C@H](C)[C@@H](O[C@H]2C[C@@](C)(OC)[C@@H](O)[C@H](C)O2)[C@H](C)[C@@H](O[C@@H]2O[C@H](C)C[C@H](N(C)C)[C@H]2O)[C@](C)(O)C[C@@H](C)C(=O)[C@H](C)[C@@H](O)[C@]1(C)O`, the mutagenic call (Species/Cell Type: Escherichia coli polA (W3119 vs P3478), Assay Type: Rec-assay, DNA effects (bacterial DNA repair), Assay Code: RE1-, Evaluation Type: Evaluation A (Pre-1980)) is “inactive; negative”.
